# Measured values taken from patent US20130005588A1, “METHOD FOR DETERMINING SUBSTANCE NON-TOXICITY” (priority 2010, published 2013).
# Read-outs that look alike come from different tables or passages of the source. Residues, ends and D or L forms follow the SMILES beside them.
# Columns and labels:
# [1] = test system: rat 3-D primary aggregating brain cell cultures; experiment: Gene expression (mRNA of nestin, NF-200, S100β, MBP) by quantitative real-time PCR in aggregating brain cell cultures exposed to potential DNT chemicals; assay type: cell-based
# Method: (§1) Generally one batch of Rat primary aggregating brain cell cultures aggregates were prepared every month. […] The endpoints applied to study processes of neurodevelopment include quantitative real-time PCR, Western blot analysis and mass spectrometry based metabolomics.
# Aggregate cultures were maintained for 35 days in vitro (DIV). Samples were taken at DIV 1, 7, 14, 21, 28, 35 and mRNA was isolated, purified and quantified by RT-PCR.
# The expression of the following genes was quantified; nestin expressed in neural precurser cells, neurofilament-200 (NF-200) expressed in neurons, S100β expressed in astrocytes and myelin basic protein (MBP) expressed in oligodendrocytes.
# Aggregating brain cell cultures were exposed to potential DNT chemicals during both early (day in vitro 7-14) and late developmental stages (day in vitro […]). Chemicals were dissolved in water or DMSO depending on their chemical properties. Control cells received the vehicle without the DNT chemical.
# [2] = test system: primary rat aggregating brain cell cultures; assay type: cell-based
# Method: as §1
# Cellular extracts (control and treated cultures) were prepared as described. The samples were used to establish an LC-MS method for the analysis of metabolites. […] Significant pertubations in metabolite levels were determined by principal component analysis and metabolites were identified by a Metlin metabolite database search using their retention time and accurate mass. Examples of metabolites that were perturbed by lead chloride and TCE treatment in the neuronal cell model and could be linked to biological pathways are provided in Table 3.
# [3] = astrocytic marker, exposure DIV 7-14 or 7-21, real-time PCR
# [4] = nestin, NF-200, S100β, MBP, exposure DIV 7-14 or 7-21
# [5] = neural precursor marker, exposure DIV 7-14 or 7-21, real-time PCR
# [6] = neuronal marker, exposure DIV 7-14 or 7-21, real-time PCR
# [7] = oligodendrocyte marker, exposure DIV 7-14 or 7-21, real-time PCR
Compound,"The lowest concentration inducing changes in mRNA levels of S100β [1, 3]","significant effects on quantified gene expression levels (one or several cell type related genes) [1, 4]","The lowest concentration inducing changes in mRNA levels of nestin [1, 5]","The lowest concentration inducing changes in mRNA levels of NF-200 [1, 6]","The lowest concentration inducing changes in mRNA levels of MBP [1, 7]",significant effects on quantified gene expression levels (one or several cell type related genes) [1],The lowest concentration inducing changes in mRNA levels of NF-200 ([1]; rat),The lowest concentration inducing changes in mRNA levels of S100β ([1]; rat),The lowest concentration inducing changes in mRNA levels of nestin ([1]; rat),"alteration of metabolites in the aggregate samples ([2]; LC-MS, intra-cellular extracts, treatment 7 to 21 DIV, principal component analysis)","The lowest concentration inducing changes in mRNA levels of S100β ([1]; astrocytic marker, exposure DIV 7-14 or 7-21, real-time PCR, listed as maneb)",alteration of metabolites in the aggregate samples [2],The lowest concentration inducing changes in mRNA levels of MBP ([1]; rat) [µM]
COC(=O)[C@H](Cc1ccccc1)NC(=O)[C@@H](N)CC(=O)O [Aspartame] (HELM PEPTIDE1{D.F.[CO[*:1]]}$$$$V2.0),—^1,did not induce any significant effects,—^1,—^1,—^1,,,,,,,,
CC(C)(c1ccc(O)cc1)c1ccc(O)cc1 [Bisphenol A],—^1,significantly affected,—^1,100 µM,—^1,,,,,,,,
[Cl][Cd][Cl] [Cadmium Chloride],1 µM,significantly affected,1 µM,1 µM,10 µM,,,,,,,,
CNC(=O)Oc1cccc2ccccc12 [Carbaryl],—^1,,0.1 µM,0.1 µM,0.1 µM,,,,,,,,
CCOP(=S)(OCC)Oc1nc(Cl)c(Cl)cc1Cl [Chlorpyrifos],10 µM,significantly affected,0.1 µM,0.1 µM,1 µM,,,,,,,,
Nc1nnc(-c2cccc(Cl)c2Cl)c(N)n1 [Lamotrigine],,,,,,did not induce any significant effects,—^1,—^1,—^1,,,,
[Cl][Pb][Cl] [Lead Chloride],10 µM,significantly affected,10 µM,0.1 µM,0.1 µM,,,,,altered hundreds of metabolites,,,
Cl[C@H]1[C@H](Cl)[C@@H](Cl)[C@@H](Cl)[C@H](Cl)[C@H]1Cl [Lindane],—^1,significantly affected,0.1 µM,0.1 µM,1 µM,,,,,,,,
S=C([S-])NCCNC(=S)[S-].[Mn+2] [Maneb],—^1,significantly affected,1 µM,0.1 µM,0.1 µM,,,,,,no observed effects,,
ClC=C(Cl)Cl [Trichloroethylene],,,,,,significantly affected,0.1 µM,—^1,50 µM,,,altered hundreds of metabolites,
CCCC(CCC)C(=O)O [Valproic acid],,,,,,significantly affected,—^1,500 µM,—^1,,,,100
